The source of these data is ChEMBL document CHEMBL1201862, “PubChem BioAssay data set” (2004).

Molecules are shown by their SMILES. Calls of active or inactive are those of the source.

One assay has as its system T-cell. Put plainly: loss of vesicle association with mouse CD8+ T cells – mouse 2C CD8+ T cells, flow cytometry, dose response (AID 485284). Type of assay: functional. Background: Flow cytometry measures light scatter and fluorescence of single cells or particles in a stream.
In assay [1] the target is Type-1 angiotensin II receptor (Homo sapiens, UniProt P30556). Put plainly: agonist activity at AGTR1 – cell-based, uHTS hits, selectivity assay for APJ receptor agonist project, dose response (AID 488865).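 Further: beta-arrestin recruitment to AT1 measured by enzyme fragment complementation luminescence.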 Format: functional.
In a further assay the target is T1, Coagulation factor XII (Homo sapiens, UniProt P00748).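 Further: activated factor XIIa alpha cleaving a fluorogenic AMC peptide substrate; inhibitor potency from loss of enzyme activity.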
T1 sequence (P00748 whole entry): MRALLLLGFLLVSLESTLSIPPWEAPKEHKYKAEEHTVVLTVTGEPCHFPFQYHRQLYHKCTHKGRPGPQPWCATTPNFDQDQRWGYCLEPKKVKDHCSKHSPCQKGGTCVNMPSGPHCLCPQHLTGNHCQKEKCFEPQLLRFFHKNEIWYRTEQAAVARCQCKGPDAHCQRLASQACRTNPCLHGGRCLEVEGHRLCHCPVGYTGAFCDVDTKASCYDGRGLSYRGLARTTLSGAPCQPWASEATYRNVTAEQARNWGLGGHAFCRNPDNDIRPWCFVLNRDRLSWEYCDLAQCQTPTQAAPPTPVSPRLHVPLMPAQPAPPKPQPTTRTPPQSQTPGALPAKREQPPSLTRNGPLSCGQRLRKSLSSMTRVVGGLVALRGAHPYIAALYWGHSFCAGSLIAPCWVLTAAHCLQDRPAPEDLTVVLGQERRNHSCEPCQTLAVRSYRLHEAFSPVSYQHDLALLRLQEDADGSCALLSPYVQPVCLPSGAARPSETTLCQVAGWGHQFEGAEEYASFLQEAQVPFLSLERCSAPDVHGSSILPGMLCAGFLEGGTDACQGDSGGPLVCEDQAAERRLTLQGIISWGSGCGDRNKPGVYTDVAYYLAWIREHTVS
Type of assay: functional.

The target in assay [2] is T2, Short transient receptor potential channel 4 (Mus musculus, UniProt Q9QUQ5).
T2 sequence (Q9QUQ5 whole entry): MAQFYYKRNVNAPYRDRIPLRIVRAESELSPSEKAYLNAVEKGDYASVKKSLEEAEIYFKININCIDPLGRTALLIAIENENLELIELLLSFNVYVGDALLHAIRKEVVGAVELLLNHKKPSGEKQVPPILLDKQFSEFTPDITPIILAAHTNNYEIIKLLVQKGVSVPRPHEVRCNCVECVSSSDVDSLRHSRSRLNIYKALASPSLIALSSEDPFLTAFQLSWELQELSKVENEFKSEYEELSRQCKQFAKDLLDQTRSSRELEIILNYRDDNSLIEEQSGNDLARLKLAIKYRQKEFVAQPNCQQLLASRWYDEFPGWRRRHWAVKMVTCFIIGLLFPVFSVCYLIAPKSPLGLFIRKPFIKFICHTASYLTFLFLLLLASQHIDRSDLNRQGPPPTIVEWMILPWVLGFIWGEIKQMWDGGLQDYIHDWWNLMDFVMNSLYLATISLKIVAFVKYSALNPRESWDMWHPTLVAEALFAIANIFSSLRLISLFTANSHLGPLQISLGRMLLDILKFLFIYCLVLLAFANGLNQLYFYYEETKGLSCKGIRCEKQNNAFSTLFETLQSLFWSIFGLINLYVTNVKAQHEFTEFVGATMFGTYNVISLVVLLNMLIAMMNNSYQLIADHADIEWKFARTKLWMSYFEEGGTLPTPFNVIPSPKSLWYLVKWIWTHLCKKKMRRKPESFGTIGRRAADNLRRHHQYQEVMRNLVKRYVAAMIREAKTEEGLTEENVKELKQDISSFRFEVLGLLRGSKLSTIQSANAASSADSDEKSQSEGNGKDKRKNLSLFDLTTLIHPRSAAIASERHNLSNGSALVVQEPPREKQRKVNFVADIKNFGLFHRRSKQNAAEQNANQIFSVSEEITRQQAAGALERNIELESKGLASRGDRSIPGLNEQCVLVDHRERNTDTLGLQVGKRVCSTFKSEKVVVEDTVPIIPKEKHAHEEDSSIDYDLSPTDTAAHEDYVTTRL
Put plainly: potentiation of DAMGO-evoked TRPC4 calcium signal – cell-based, HEK293 TRPC4/mu-opioid, Fluo-4 calcium, EC20 DAMGO, dose response (AID 434941).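 Further: HEK293 cells coexpressing TRPC4 and mu opioid receptor stimulated by EC20 DAMGO.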 Format: functional.

The nature of assay [3]: HPDE-C7 pancreatic duct cell viability loss – fluorescence, HTS (AID 430). Format: functional, cell-based. As to conditions: Homo sapiens.
The target of assay [4] is T3, Heat shock factor protein 1 (Mus musculus, UniProt P38532).
T3 sequence (P38532 whole entry): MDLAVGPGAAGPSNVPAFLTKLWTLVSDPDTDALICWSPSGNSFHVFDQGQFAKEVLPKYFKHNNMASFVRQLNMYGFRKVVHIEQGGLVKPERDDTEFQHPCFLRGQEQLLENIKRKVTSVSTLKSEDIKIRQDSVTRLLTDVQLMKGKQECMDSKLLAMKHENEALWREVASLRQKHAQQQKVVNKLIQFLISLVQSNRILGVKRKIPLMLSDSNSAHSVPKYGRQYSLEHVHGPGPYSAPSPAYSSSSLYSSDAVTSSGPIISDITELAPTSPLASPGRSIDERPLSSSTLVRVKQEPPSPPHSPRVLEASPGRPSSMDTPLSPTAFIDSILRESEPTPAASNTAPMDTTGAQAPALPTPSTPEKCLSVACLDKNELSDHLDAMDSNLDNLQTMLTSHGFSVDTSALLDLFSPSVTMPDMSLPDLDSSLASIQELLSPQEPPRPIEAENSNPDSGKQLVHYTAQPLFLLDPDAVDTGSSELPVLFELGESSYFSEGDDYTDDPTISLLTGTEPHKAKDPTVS
Put plainly: enhancement of HSF1-driven luciferase signal – cell-based, NIH3T3, luminescence, dose retest, confirmation (AID 435004).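 Further: stress induced by proteasome inhibitor MG132 added 30 min after compound; luciferase reporter driven by HSF1 response element in NIH3T3 cells; actives raise luminescence as potentiators of the MG132 stress response.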 Type of assay: functional.

Assay [5] can be described thus: viability loss of HPDE-C7K cells – cell-based, fluorescence, HTS, primary screen (AID 431). As to conditions: Homo sapiens. Format: functional.
Assay [6] concerns the target T4, High affinity choline transporter 1 (Homo sapiens, UniProt Q9GZV3).
T4 sequence (Q9GZV3 whole entry): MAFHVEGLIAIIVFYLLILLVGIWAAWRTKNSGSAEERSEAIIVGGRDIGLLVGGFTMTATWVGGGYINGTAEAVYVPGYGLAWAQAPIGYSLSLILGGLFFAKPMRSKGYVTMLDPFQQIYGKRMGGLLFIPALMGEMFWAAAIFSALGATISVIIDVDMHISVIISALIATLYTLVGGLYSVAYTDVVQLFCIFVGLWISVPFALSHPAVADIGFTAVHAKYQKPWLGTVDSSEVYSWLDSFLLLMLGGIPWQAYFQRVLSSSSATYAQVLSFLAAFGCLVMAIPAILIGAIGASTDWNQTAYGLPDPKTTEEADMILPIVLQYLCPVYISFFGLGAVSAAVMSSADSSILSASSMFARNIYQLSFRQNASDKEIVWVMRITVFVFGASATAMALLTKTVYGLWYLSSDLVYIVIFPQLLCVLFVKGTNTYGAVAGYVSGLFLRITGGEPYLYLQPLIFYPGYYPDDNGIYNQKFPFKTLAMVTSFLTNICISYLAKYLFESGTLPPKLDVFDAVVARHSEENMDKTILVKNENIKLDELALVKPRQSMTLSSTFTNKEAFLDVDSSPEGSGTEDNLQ
Put plainly: human choline transporter blockers, potency – cell-based, 5-point CRC, membrane potential dye, dose response (AID 504840). Type of assay: functional.

Assay [7] has as its target T2, Short transient receptor potential channel 4. Put plainly: calcium entry via TRPC4 opening agents – cell-based, HEK293 TRPC4/mu-opioid, Fluo-4 calcium, dose response (AID 434937). Format: functional.
A further assay concerns the target Hexokinase (Trypanosoma brucei, UniProt Q38C41). Put plainly: Confirmation assay for inhibitors of Trypanosoma brucei hexokinase 1-Analogue-first series. [Related pubchem assays (depositor defined):AID1430, AID1632, AID2516, AID2560, AID2579, AID2600, AID449725, AID492951]. Format: functional.
Assay [8] concerns the target Dual specificity protein phosphatase 3 (Homo sapiens, UniProt P51452). Put plainly: SAR VHR1 Fluorescent Assay for In Vitro dose response studies Set 2. [Related pubchem assays (depositor defined):AID1654, AID1661, AID1878]. Type of assay: functional.
Assay [9] deals with T5, Tyrosine-protein phosphatase non-receptor type 7 (Homo sapiens, UniProt P35236).
T5 sequence (P35236 whole entry): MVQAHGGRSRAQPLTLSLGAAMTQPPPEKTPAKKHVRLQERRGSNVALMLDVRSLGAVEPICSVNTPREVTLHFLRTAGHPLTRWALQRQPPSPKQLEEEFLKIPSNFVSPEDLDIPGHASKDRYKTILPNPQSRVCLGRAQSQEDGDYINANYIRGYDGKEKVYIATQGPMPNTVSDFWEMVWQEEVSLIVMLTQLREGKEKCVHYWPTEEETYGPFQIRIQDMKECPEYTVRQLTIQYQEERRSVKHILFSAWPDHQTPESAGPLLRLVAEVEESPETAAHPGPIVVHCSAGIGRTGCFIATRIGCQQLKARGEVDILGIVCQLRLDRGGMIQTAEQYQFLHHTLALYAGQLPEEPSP
Put plainly: SAR analysis of chemical inhibitors of HePTP using a Fluorescent assay - Set 2. [Related pubchem assays (depositor defined):AID1059, AID1077, AID1661, AID2085, AID521]. Type of assay: functional.

Assay [10] addresses T6, Sphingosine 1-phosphate receptor 4 (Homo sapiens, UniProt O95977).
T6 sequence (O95977 whole entry): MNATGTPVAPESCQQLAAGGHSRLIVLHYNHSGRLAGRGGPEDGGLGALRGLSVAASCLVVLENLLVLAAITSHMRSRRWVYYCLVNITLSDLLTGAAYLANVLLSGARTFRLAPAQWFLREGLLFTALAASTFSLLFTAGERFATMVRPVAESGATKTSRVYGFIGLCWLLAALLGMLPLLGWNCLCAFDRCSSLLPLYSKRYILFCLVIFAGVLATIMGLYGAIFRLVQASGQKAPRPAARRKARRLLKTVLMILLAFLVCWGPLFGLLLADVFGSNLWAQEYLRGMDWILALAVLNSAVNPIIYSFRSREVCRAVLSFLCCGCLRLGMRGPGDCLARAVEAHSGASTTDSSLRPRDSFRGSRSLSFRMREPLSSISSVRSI
Put plainly: potency of S1P4 activators – cell-based, fluorescence, synthesized compounds, late-stage follow-up (AID 463107). Format: functional.

The target of a further assay is Mucolipin-3 (Homo sapiens, UniProt Q8TDD5). Put plainly: Fluorescence counterscreen assay for […] agonists: dose response cell-based high-throughput screening assay to identify agonists of the transient receptor potential channel ML3 (TRPML3). [Related pubchem assays: 1424, 1448 ]. Type of assay: functional. A general note: A counterscreen serves to expose hits that act by an unwanted route or on another target.

The target of the next assay is Ion channel NompC (Danio rerio, UniProt Q7T1G6). Put plainly: Dose response cell-based high-throughput screening assay for agonists of the transient receptor potential channel N1 (TRPN1). [Related pubchem assays (depositor defined):AID1424, AID1448]. Type of assay: functional.
Assay [11] deals with Photoreceptor-specific nuclear receptor (Homo sapiens, UniProt Q9Y5X4). Format: functional, cell-based.
Photoreceptor-specific nuclear receptor, sequence (Q9Y5X4 whole entry): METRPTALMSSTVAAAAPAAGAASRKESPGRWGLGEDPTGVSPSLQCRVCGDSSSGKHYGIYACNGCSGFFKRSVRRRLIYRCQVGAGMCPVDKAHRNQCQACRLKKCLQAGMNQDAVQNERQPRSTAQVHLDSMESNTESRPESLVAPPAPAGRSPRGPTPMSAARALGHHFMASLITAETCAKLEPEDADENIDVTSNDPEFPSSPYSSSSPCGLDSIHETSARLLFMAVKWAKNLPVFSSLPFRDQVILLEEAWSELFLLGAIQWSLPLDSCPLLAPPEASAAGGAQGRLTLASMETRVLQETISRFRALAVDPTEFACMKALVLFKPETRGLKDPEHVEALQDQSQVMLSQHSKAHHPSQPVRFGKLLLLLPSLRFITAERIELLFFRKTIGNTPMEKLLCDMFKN

Ion channel NompC, sequence (Q7T1G6 whole entry): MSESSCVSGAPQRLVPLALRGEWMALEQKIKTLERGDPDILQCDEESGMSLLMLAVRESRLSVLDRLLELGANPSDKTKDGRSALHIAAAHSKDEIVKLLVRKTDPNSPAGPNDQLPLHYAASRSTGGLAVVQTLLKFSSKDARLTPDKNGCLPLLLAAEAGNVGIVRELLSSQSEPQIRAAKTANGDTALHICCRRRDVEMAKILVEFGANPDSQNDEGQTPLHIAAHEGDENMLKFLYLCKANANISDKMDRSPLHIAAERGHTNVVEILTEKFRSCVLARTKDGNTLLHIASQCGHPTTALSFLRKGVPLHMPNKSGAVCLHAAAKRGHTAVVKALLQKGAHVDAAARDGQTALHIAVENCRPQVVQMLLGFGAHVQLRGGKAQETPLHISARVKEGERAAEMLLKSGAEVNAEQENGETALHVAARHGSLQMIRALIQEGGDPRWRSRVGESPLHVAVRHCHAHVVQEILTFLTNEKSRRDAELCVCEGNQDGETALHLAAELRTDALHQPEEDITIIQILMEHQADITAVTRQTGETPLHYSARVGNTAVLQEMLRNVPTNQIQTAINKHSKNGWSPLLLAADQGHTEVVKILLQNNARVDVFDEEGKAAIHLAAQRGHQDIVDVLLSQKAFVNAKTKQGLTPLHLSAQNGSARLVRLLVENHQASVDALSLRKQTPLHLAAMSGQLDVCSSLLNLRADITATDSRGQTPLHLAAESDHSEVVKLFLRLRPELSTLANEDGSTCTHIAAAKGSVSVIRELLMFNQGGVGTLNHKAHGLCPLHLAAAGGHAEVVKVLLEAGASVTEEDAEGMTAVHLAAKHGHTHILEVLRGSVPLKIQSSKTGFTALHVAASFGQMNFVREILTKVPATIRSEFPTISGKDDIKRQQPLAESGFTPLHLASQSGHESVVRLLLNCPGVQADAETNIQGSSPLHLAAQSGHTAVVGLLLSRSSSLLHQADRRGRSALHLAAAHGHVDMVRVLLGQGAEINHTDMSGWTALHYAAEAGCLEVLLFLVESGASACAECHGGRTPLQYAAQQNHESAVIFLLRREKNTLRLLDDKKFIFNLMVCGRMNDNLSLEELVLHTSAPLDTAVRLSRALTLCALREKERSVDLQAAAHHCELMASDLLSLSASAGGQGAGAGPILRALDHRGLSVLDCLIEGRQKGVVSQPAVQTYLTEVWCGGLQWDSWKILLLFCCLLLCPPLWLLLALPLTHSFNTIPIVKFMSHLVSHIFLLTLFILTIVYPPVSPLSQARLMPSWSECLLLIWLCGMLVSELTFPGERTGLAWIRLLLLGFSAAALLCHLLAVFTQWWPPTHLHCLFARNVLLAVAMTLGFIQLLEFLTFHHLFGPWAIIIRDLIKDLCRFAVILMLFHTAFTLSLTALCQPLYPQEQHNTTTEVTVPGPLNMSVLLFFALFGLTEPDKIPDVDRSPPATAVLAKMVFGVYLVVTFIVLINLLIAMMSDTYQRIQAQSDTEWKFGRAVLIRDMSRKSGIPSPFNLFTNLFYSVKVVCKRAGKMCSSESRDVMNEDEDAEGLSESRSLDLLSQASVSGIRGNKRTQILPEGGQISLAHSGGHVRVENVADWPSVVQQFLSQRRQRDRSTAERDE
Dual specificity protein phosphatase 3, sequence (P51452 whole entry): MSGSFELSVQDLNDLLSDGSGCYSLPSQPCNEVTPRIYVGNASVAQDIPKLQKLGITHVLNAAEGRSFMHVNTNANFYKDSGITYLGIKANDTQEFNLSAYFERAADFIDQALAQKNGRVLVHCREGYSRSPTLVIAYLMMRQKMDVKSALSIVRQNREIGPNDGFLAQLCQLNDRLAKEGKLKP
Hexokinase, sequence (Q38C41 whole entry): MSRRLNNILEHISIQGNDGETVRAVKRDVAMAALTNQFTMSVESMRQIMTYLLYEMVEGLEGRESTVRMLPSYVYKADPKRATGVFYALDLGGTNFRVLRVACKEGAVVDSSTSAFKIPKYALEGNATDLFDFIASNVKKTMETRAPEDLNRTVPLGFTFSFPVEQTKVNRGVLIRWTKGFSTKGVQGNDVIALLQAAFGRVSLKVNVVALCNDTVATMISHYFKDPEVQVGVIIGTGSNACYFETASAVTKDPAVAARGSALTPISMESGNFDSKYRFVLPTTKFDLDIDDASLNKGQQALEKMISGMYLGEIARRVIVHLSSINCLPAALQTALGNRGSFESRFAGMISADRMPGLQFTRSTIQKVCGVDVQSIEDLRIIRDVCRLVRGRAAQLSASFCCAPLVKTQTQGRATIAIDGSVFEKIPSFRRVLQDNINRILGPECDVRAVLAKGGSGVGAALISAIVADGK
Type-1 angiotensin II receptor, sequence (P30556 whole entry, the tested form may be a part): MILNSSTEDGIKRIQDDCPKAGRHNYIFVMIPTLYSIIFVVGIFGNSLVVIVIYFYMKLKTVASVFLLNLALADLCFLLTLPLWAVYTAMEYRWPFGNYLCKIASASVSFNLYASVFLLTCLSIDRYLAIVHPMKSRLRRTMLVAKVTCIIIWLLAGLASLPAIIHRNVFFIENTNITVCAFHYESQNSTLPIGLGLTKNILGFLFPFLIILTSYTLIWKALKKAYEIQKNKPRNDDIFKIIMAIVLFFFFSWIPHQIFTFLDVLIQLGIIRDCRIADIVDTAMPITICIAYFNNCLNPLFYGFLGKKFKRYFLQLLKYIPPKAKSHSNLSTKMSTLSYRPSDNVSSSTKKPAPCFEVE
Mucolipin-3, sequence (Q8TDD5 whole entry): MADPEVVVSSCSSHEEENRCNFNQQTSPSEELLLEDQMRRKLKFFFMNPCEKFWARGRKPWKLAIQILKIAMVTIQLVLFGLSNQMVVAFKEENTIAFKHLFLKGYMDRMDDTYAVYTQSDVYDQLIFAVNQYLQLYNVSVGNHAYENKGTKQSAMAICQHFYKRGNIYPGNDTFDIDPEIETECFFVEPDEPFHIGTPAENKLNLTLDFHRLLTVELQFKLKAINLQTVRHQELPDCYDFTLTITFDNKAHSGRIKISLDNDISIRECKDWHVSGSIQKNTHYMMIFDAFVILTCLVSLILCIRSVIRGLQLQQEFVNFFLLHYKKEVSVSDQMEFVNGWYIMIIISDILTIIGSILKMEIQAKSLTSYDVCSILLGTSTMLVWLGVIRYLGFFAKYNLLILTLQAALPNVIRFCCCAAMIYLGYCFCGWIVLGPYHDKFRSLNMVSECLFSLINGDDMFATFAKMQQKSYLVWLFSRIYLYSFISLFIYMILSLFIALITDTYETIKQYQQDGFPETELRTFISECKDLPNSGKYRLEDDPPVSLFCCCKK

For orientation: EC50 means the concentration giving half of the maximal effect. As to `O=C(NCCN1CCN(c2ccccc2)CC1)c1cccc(Br)c1`, in the assay on T-cell, the EC50 is 7.17 µM (active).

Take `CCCc1cc(C(=O)Nc2sc3c(c2C(=O)OCC)CCCC3)no1`: the EC50 in [1] was > 100 µM (inactive).

One may read the IC50 as the concentration that inhibits the measured activity by half. Take `COC(=O)c1n[nH]c(NC(=O)c2ccccc2Cl)n1`: the IC50 at Coagulation factor XII is 1.05 µM (active).

`CCCCc1cc(O)c(CCCC)c(O)c1`: the EC50 in assay [2] is 1.88 µM (active); in assay [3], 8.86 µM (active); in assay [4], 9.33 µM (active); in assay [5] it was 9.78 µM (active); in [7], 0.473 µM (active). Further, the IC50 in assay [6] was 6.03 µM (active).

With `O=C(Nc1cc(Cl)ccc1C(=O)O)c1ccc(C(F)(F)F)cc1`, the IC50 at Hexokinase is > 25 µM (inactive).

Regarding `S=C(Nc1ccccc1)N1CCN(Cc2ccc3c(c2)OCO3)CC1`, the IC50 in assay [8] and in assay [9] was > 100 µM (inactive) throughout.

Turning to `COCc1ccc(OCCOc2ccc(Cl)cc2Cl)c(Cl)n1`, in [10], the EC50 is 12 µM (inactive).

Regarding `N#C/C(=N\Nc1ccc(Cl)c(Cl)c1)C(=O)C1CC1`, the EC50 at Mucolipin-3 is > 29.9 µM (not active); on Ion channel NompC it was > 9.97 µM (inactive). In [11], the IC50 is 1.29 µM (active).
